Data from patent publication US20160235749A1, “MICRO-PARTICULATED NANOCAPSULES CONTAINING LOPINAVIR WITH ENHANCED ORAL BIOAVAILABILITY AND EFFICACY” (priority 2015, published 2016).
In brackets after ≈: the same amount, converted by molar mass. Where two headings read alike, the source gives them in different places.

Legend:
[1] = LPV in-vitro release profile experiment; assay type: physicochemical; conditions: 0.1% Tween 80 release medium
Method: LPV in-vitro release kinetic experiments were carried out using the apparatus (VanKel VK7000 with a VK […] pump) comprised of six vessels containing 300 ml of 0.1% Tween 80 at 37° C. with USP paddles rotating at a speed of 50 rpm. The three formulations (F[I]-F[III]) were added to the different vessels at a LPV quantity equivalent to maintain sink conditions (10% of the pre-determined solubility). […] The samples were filtered using 0.45 μm PVDF filter and 500 μl from the filtrate was diluted in 500 μl methanol. These samples were comprised of free and encapsulated LPV, since LPV NCs diameter size is about 200 nm and the NCs can diffuse via 0.45 μm membrane pores. The remaining filtrate was then transferred to diafiltration membrane vivaspin 6 (MWCO 300,000 purchased from Sartorius Stedim Biotech) and centrifuged for 15 min at 4000 rpm. […] All samples were analyzed using HPLC. […] The graphs display both the total amount of LPV released from the MCPs, as free dissolved molecules and the LPV molecules still entrapped in the NCs, as detected following filtration of the dissolution samples through 0.45 μm PVDF filters (dimond-shaped points), as well as the free dissolved LPV molecules fraction only, as detected following a second filtration using 300,000 MW cut off vivaspin membranes which retained the NCs (square points). […]

[2] = Pharmacokinetic studies in rats (LPV plasma levels by LC-MS/MS); assay type: in vivo; conditions: male, Sprague-Dawley, rat, oral, 10 mg/kg, read-out: absolute bioavailability compared to i.v. LPV solution
[3] = as above; assay type: in vivo; conditions: male, Sprague-Dawley, rat
Method: Sprague-Dawley male rats weighing 270-300 g were used and were separated randomly into seven groups with 4-8 animals per group to evaluate the biofate of LPV in different formulations. The animals were housed in SPF conditions, fasted overnight (12-14 h prior to the experiment) with free access to water. The animals were given a dose of 10 mg/kg LPV with or without RTV, always at the same ratio as the Kaletra® administered orally, using gavage. The groups were orally administered according to the following experimental conditions: 1 ml of Kaletra® oral solution (LPV 80 mg/RTV 20 mg/ml) prepared by diluting the purchased commercial solution with 1:1:1 ethanol:propylene glycol:DDW to a concentration of LPV 3 mg/RTV 0.75 mg/ml; and microparticulate formulations, F[I]-F[III] prepared by dispersing the NCs embedded in MCPs in DDW to the final concentration of 40 mg/ml. Blood samples (400-500 μl) were withdrawn from the tail vein at 0, 0.5, 1, 2, 4, 8, 12 and 24 h. Saline solution was given to the animals after 30 min and then again after 3 h. The blood samples were collected in heparin containing tubes. The samples were immediately centrifuged at 10,000 rpm for 5 min, after which 200-300 μl of plasma samples were transferred to new tubes and stored at −80° C. until further analysis by LC-MS/MS as described below.
The blood samples were treated by protein precipitation in methanol, following 15 min centrifuge at 10,000 rpm. 25 ng of quinoxaline (QX) dissolved in methanol were added to each sample, as an internal standard. The supernatant layer was collected and the samples were injected into an LC-MS/MS device under the following conditions: using a Phenomenex Kenetex column (RP-C18, 50×2.1 mm, 2.6 μm, 100 A) in gradient mode; the mobile phase consisted of A=methanol/formic acid 99.9/0.1 and B=water/formic acid 99.9/0.1; the A:B ratio was 58:42 at t=0 min, during the first 1.5 min the ratio changed gradually to A:B 80:20 and remained steady until 2.1 min. […] The flow rate was maintained at 0.35 ml/min, and the column temperature was maintained at 35° C. LC-MS/MS analysis was performed with a thermo scientific Accela HPLC system coupled with a TSQ Quantum Access MAX detector in positive ionization mode. Detection and quantification were carried out by multiple-reaction monitoring with transitions from m/z 629.3 to 156 for LPV and from m/z 313.1 to 246 for QX. The tested samples were quantified against a calibration curve in the range of 0-100 ng/ml.
The change in LPV plasma concentrations following intravenous (i.v.) administration of LPV alone and combined with RTV in an aqueous solution and the pharmacokinetic (PK) profile of LPV following oral administration of various formulations is depicted in FIG. 10. […] The absolute bioavailability (F) of LPV at all dosage forms was calculated relative to the AUC (area under the curve) yielded by i.v. administration of LPV and RTV at the ratio of 4:1 (F=1.0) since the same combination of LPV and RTV, when administered orally, is considered the standard of PI care for HIV-linfected patients.

[4] = LPV solubility test in 0.1% Tween 80; assay type: physicochemical; conditions: 0.1% Tween 80 solution, aqueous with cosolvent or surfactant or cyclodextrin, thermodynamic from solid; 0.1% Tween 80, pH 7.4, 37° C., 3 h incubation
Method: A solubility test was performed prior to the in-vitro release profile experiment to ensure that sink conditions would prevail by adding 10 mg LPV to 10 ml of 0.1% Tween 80 pre-warmed to 37° C. in a beaker. The pH was adjusted to 7.4 and the Tween solution was kept at 37° C. and rotated at 150 rpm for 3 h. Then, 5 ml aliquots were taken and filtered using a 0.45 μm PVDF filter and diluted with methanol to a final dilution factor of 10.

[5] = plasma, rats, oral, 10 mg/kg LPV

**Q.** Which “LPV solubility at pH 1.2” value [1] does the source give for `Cc1cccc(C)c1OCC(=O)N[C@@H](Cc1ccccc1)[C@@H](O)C[C@H](Cc1ccccc1)NC(=O)[C@H](C(C)C)N1CCCNC1=O` [LPV, (2S)—N-[(2S,4S,5S)-5-[2-(2,6-dimethylphenoxy)acetamido]-4-hydroxy-1,6-diphenylhexan-2-yl]-3-methyl-2-(2-oxo-1,3-diazinan-1-yl)butanamide] here?
**A.** low solubility below HPLC detection limit

**Q.** And the bioavailability [2]?
**A.** 24%

**Q.** And the “decrease in Cmax compared to Kaletra® oral solution” value ([3]; in vivo, po)?
**A.** 3 fold

**Q.** What about the AUC ([3]; plasma, iv, rats, 10 mg/kg LPV) of the same compound?
**A.** 8000 ± 1220 ng·h/mL

**Q.** And the clearance ([3]; plasma, iv, rats, 10 mg/kg LPV)?
**A.** 21.1 mL/min/kg

**Q.** And the half-life ([3]; plasma, iv, rats, 10 mg/kg LPV)?
**A.** 1.2 ± 0.2 h

**Q.** And the Cmax ([3]; plasma, iv, rats, i.v., 10 mg/kg LPV, read-out: Cmax (extrapolated plasma concentration at T0))?
**A.** 2780 ± 203 ng/mL

**Q.** What about the bioavailability ([3]; plasma, oral, 10 mg/kg, rats, oral, read-out: absolute bioavailability compared to LPV:RTV 4:1 i.v.) of the same compound?
**A.** 5%

**Q.** What about the AUC [3, 5] of the same compound?
**A.** 1910 ± 324 ng·h/mL

**Q.** What about the half-life [3, 5] of the same compound?
**A.** 4.8 ± 0.9 h

**Q.** What about the Cmax ([3]; plasma, rats, oral, 10 mg/kg LPV, read-out: Cmax) of the same compound?
**A.** 780 ± 246 ng/mL

**Q.** What about the solubility at 3 h [4] of the same compound?
**A.** 72.7 µg/mL (≈ 116 µM)
